Reference: US9101640B2, “Use of Danshensu, Notoginsenoside R1 or their combination in preparation of medicaments for preventing and treating diseases caused by microcirculation disorder” (Tasly Pharmaceutical Group Co., Ltd., priority 2009, dated 2015)
Entries after “also recorded” stand apart in the source; their conditions may differ.

Assays:
[1] = tested on: peroxides in the mesenteric venular walls; assay: DHR fluorescence intensities of venular walls (production of peroxides) after I/R; assay type: in vivo; settings: rat mesenteric I/R
Method: The rats were anesthetized by intraperitoneal injection of pentobarbital sodium (30 mg/kg body weight (BW)). PE venous cannulas (#3) were cannulated into the right jugular of the rats and detained. The abdomen of each rat was incised in a length of 20-30 mm along the midline. The ileum near the ileocecal junctions was gently taken out and unfolded onto the object stage mounted with glass slides. The unfolded mesenteries were continuously dripped with Krebs-Ringer buffering solution at 37° C. The microcirculatory dynamics of the mesenteries was observed under white light (12V, 100 W) using an inverted biomicroscope (Diaphot TMD-2S, Nikon, Tokyo) placed in the thermostat at 37° C. Observation sites were selected under 20× object lens, and a video recording system with a time-displaying function was used to record what had been observed on S-VHS tape and preserved. […] PE cannulas were used to ligate non-circulatory mesenteric arteries and veins, so as to observe the arteries and veins for 10 min, and then the ligation was lifted. Time was adjusted to zero and the microcirculatory dynamics under the same visual field was continuously observed for 60 min. […]
DLA was administrated at 10 min after I/R until the end of the observation by continuously intravenous drip via jugular at a dosage of 5 mg/kg/h. […]
Wherein, 6 rats in each group were taken out, these rats were used for observing the following aspects: the venular diameters; leukocytes rolling, adhesion, and emigration and DHR fluorescence intensities of the venular walls. […]
Microcirculatory dynamics was continuously recorded using an inverted biomicroscope […] recording system (CC-090, Flovel, Tokyo) and SIT fluorescent camera (C-2400-08, Hamamatsu Photonics, Hamamatsu).
The H2O2-sensitive fluorescent probes DHR ([…]) were continuously dripped onto the surfaces of the rat's mesenteries to be observed. An inverted fluorescence microscope (DM-IRB, Leica, Germany) with an excitation wavelength at 455 nm and a mercury lamp as an excitation source (100 W) was used. The images were recorded with a CD camera at the following time points: before ischemia, and 1 min, 10 min, 20 min, 30 min, 40 min, 50 min and 60 min after the beginning of the reperfusion. The fluorescence intensities of the venular wall and the extravascular interstitial substance were measured with a Image-Pro Plus 5.0 software. The […] value between the fluorescence intensity of the venular wall and that of the extravascular interstitial substance before ischemia was taken as a baseline. The ratio of the changing value at each time point to the baseline were calculated, which was used to indicate the changing rate of the DHR fluorescence intensities of the rat's mesenteric venular walls.

[2] = tested on: mesenteric venules; assay: Diameters of mesenteric venules after I/R; assay type: in vivo; settings: rat mesenteric I/R
Method: The rats were anesthetized by intraperitoneal injection of pentobarbital sodium (30 mg/kg body weight (BW)). PE venous cannulas (#3) were cannulated into the right jugular of the rats and detained. The abdomen of each rat was incised in a length of 20-30 mm along the midline. The ileum near the ileocecal junctions was gently taken out and unfolded onto the object stage mounted with glass slides. The unfolded mesenteries were continuously dripped with Krebs-Ringer buffering solution at 37° C. The microcirculatory dynamics of the mesenteries was observed under white light (12V, 100 W) using an inverted biomicroscope (Diaphot TMD-2S, Nikon, Tokyo) placed in the thermostat at 37° C. Observation sites were selected under 20× object lens, and a video recording system with a time-displaying function was used to record what had been observed on S-VHS tape and preserved. […] Normal saline was administrated at 20 min before ischemia until the end of the observation by continuously intravenous drip via jugular at a dosage of 5 mg/kg/h. PE cannulas were used to ligate non-circulatory mesenteric arteries and veins, so as to observe the arteries and veins for 10 min, and then the ligation was lifted. Time was adjusted to zero and the microcirculatory dynamics under the same visual field was continuously observed for 60 min. DLA was administrated at 20 min before ischemia until the end of the observation by continuously intravenous drip via jugular at a dosage of 5 mg/kg/h. R1 was administrated at 20 min before ischemia until the end of the observation by continuously intravenous drip via jugular at a dosage of 5 mg/kg/h. The combination of DLA and R1 in a weight ratio of 4:1 was administrated at 20 min before ischemia until the end of the observation by continuously intravenous drip via jugular at a dosage of 5 mg/kg/h. The combination of DLA and R1 in a weight ratio of 1:1 was administrated at 20 min before ischemia until the end of the observation by continuously intravenous drip via jugular at a dosage of 5 mg/kg/h. […] Wherein, 6 rats in each group were taken out, these rats were used for observing the following aspects: the venular diameters; leukocytes rolling, adhesion, and emigration and DHR fluorescence intensities of the venular walls. […] Microcirculatory dynamics was continuously recorded using an inverted biomicroscope […] recording system (CC-090, Flovel, Tokyo) and SIT fluorescent camera (C-2400-08, Hamamatsu Photonics, Hamamatsu). 3 sites of the mesenteric venules were measured using Image-Pro Plus 5.0 software from the replayed CD records at the following time points: before ischemia and 1 min, 10 min, 20 min, 30 min, 40 min, 50 min and 60 min after the beginning of the reperfusion. The average diameters were calculated.

[3] = post-administration, 5 mg/kg/h continuous i.v. drip from 20 min after ischemia (DLA: 10 min after I/R)
[4] = pre-administration, 5 mg/kg/h continuous i.v. drip from 20 min before ischemia

Row | Structure (SMILES) | inhibition of the production of peroxides in the mesenteric venular walls after I/R (DHR fluorescence) [1, 3] | inhibition of the production of peroxides in the mesenteric venular walls after I/R (DHR fluorescence) [1, 4] | effect on the diameters of the mesenteric venules after reperfusion [2, 3] | effect on the diameters of the mesenteric venules after reperfusion ([2]; pre-administration, 5 mg/kg/h continuous i.v. drip from 20 min before ischemia, 60 min reperfusion) | effect on the diameters of the mesenteric venules after reperfusion ([2]; post-administration, 5 mg/kg/h continuous i.v. drip from 20 min after ischemia (DLA: 10 min after I/R), 5 mg/kg) | effect on the diameters of the mesenteric venules after reperfusion ([2]; pre-administration, 5 mg/kg/h continuous i.v. drip from 20 min before ischemia, 60 min reperfusion, 5 mg/kg)
1 | O=C(O)C(O)Cc1ccc(O)c(O)c1 (centres unmarked) [DLA, 3,4-dihydroxyphenyl lactic acid] | had significant inhibitory effects; also recorded: has the same effects as those of the pre-administration | had significant inhibitory effects; also recorded: can inhibit | did not cause the significant changes | did not cause the significant changes |  | 
2 | CC(C)=CCC[C@](C)(O[C@@H]1O[C@H](CO)[C@@H](O)[C@H](O)[C@H]1O)[C@H]1CC[C@]2(C)[C@@H]1[C@H](O)C[C@@H]1[C@@]3(C)CC[C@H](O)C(C)(C)[C@@H]3[C@@H](O[C@@H]3O[C@H](CO)[C@@H](O)[C@H](O)[C@H]3O[C@@H]3OC[C@@H](O)[C@H](O)[C@H]3O)C[C@]12C [R1, Notoginsenoside R1] | had no significant inhibitory effects; also recorded: has no inhibitory effects | had no significant inhibitory effects; also recorded: has no inhibitory effects |  |  | did not cause the significant changes; also recorded: have no significant inhibitory effects | did not cause the significant changes; also recorded: have no significant inhibitory effects
